This is an account of results in patent US11352354B2, “Substituted penta-fused hexa-heterocyclic compounds, preparation method therefor, drug combination and use thereof” (Xiamen University, priority 2017, dated 2022).

The target in one experiment is PIKfyve protein (Homo sapiens (Human), UniProt Q9Y2I7). The experiment can be described thus: Dissociation equilibrium constant (Kd) of compound and PIKfyve protein, DiscoverX KINOMEscan. It is filed as binding. The settings on record: eleven 3-fold dilutions, curve fitting. How it is done:
II. Determination of Dissociation Equilibrium Constant (Kd Value) of Compound and PIKfyve Protein
The Kd value was determined by DiscoverX's KINOMEscan™ technology according to the following steps:
1. Preparation of magnetic beads: biotin-labeled small molecule ligand and avidin-coated magnetic beads were allowed to interact at room temperature for 30 minutes, and then added with excess biotin, followed by washing with a blocking solution (1% BSA, 0.05% Tween 20, 1 mM DTT) to remove unbound ligand.
2. Binding reaction: in a 384 plate, 0.02 mL system, DNA-labeled protein, small molecule ligand-bound magnetic beads, and different concentrations of compound to be tested were mixed in a reaction solution (0.17×PBS, 0.05% Tween 20, 6 mM DTT) at room temperature with shaking for 1 hr, to which was added an eluant (1×PBS, 0.05% Tween 20) for elution. Magnetic beads were resuspended by an eluant (1×PBS, 0.05% Tween 20, 0.5 μM non-biotin-labeled small molecule ligand), and shaken at room temperature for 30 min before separating out the eluant.
3. Determination of Kd value: the content of protein in the above eluate was determined by qPCR. Eleven 3-fold dilution concentrations were determined for the compound to be tested, with 3 DMSO controls for each concentration, and the Kd value was obtained by curve fitting.

Another experiment deals with MDA-MB-231 cells. Briefly: Vacuolation of MDA-MB-231 cells caused by inhibition of compounds on PIKfyve (microscopy). Also: key: '+' represents the degree of vacuolation; ++: more '+' indicates more obvious vacuolation; +++: more '+' indicates more obvious vacuolation; ++++: more '+' indicates more obvious vacuolation; '−' represents no vacuolation. The experiment is classed as cell-based. Conditions: MDA-MB-231 cells. The gist of the method:
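MDA-MB-231 cells in 12-well plates at 37 °C, 5% CO2 were observed by microscopy after 24 and 48 h of culture for cytoplasmic vacuolation as a readout of PIKfyve inhibition. Scoring was semi-quantitative, from − (none) to increasing +.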

Another experiment concerns JeKo-1 cells. The experiment can be described thus: Tumor cell growth inhibition by MTS method, JeKo-1. Conditions: Homo sapiens, JeKo-1, 120 h, 5 days of culture. It is filed as cell-based. As to the method: III. Determination of IC50 Value of Compound for Inhibiting Tumor Cell Growth by MTS Method
1. Cell plating: cells in logarithmic growth phase were counted and inoculated in a 96-well plate (20000 cells per well).
2. Administrating agent to cell: 10 mM compound mother solution in DMSO was subjected to 3 fold-gradient dilution, to set 8 concentrations, which were then added to various wells, with three replicates for each concentration, and three blank wells (only culture medium) and three negative controls (containing 0.1% DMSO) on each plate.
3. […] The OD value at 490 nm was measured with microplate reader OD490. The cell growth inhibition rate was calculated by the following formula: Cell growth inhibition rate %=1−(ODexperimental group−ODblank group)/(ODnegative group−ODblank group)×100%
The semi-inhibitory concentration IC50 of the compound acting on cell growth was calculated using GradPad Prism 5 software according to the measured cell growth inhibition rate.
In the following table it lists the IC50 value or the inhibition rates of some compounds at 10 μM against JeKo-1 cells
For orientation: Formazan colour is commonly taken as a measure of viable cells.

The subject of a further experiment is Toledo cells. Briefly: Growth inhibition of PIKfyve-mediated tumor cells by Cell Titer Glo method, Toledo. The experiment is classed as cell-based. The settings on record: Homo sapiens, 120 h, CellTiter-Glo, 5 days of culture, read-out: Inhibition rate % (Toledo). As to the method:
(§1) IV. Determination of Growth Inhibition Rates of Compounds Against PIKfyve-Mediated Tumor Cells by Cell Titer Glo Method
(§2) 1. Cell plating: cells in logarithmic growth phase were counted and inoculated in 384-well plate.
(§3) 3. […] RLU was measured on PHERAstar Plus.

The subject of the next experiment is ST486 cells. The experiment can be described thus: Growth inhibition of PIKfyve-mediated tumor cells by Cell Titer Glo method, ST486. It is filed as cell-based. The settings on record: Homo sapiens, 120 h, CellTiter-Glo, 5 days of culture, read-out: Inhibition rate % (ST486). How it is done: as §1, §2, §3
For orientation: ATP-based viability assays read luminescence as a measure of living cells.

Chain of PIKfyve protein (Q9Y2I7 whole entry): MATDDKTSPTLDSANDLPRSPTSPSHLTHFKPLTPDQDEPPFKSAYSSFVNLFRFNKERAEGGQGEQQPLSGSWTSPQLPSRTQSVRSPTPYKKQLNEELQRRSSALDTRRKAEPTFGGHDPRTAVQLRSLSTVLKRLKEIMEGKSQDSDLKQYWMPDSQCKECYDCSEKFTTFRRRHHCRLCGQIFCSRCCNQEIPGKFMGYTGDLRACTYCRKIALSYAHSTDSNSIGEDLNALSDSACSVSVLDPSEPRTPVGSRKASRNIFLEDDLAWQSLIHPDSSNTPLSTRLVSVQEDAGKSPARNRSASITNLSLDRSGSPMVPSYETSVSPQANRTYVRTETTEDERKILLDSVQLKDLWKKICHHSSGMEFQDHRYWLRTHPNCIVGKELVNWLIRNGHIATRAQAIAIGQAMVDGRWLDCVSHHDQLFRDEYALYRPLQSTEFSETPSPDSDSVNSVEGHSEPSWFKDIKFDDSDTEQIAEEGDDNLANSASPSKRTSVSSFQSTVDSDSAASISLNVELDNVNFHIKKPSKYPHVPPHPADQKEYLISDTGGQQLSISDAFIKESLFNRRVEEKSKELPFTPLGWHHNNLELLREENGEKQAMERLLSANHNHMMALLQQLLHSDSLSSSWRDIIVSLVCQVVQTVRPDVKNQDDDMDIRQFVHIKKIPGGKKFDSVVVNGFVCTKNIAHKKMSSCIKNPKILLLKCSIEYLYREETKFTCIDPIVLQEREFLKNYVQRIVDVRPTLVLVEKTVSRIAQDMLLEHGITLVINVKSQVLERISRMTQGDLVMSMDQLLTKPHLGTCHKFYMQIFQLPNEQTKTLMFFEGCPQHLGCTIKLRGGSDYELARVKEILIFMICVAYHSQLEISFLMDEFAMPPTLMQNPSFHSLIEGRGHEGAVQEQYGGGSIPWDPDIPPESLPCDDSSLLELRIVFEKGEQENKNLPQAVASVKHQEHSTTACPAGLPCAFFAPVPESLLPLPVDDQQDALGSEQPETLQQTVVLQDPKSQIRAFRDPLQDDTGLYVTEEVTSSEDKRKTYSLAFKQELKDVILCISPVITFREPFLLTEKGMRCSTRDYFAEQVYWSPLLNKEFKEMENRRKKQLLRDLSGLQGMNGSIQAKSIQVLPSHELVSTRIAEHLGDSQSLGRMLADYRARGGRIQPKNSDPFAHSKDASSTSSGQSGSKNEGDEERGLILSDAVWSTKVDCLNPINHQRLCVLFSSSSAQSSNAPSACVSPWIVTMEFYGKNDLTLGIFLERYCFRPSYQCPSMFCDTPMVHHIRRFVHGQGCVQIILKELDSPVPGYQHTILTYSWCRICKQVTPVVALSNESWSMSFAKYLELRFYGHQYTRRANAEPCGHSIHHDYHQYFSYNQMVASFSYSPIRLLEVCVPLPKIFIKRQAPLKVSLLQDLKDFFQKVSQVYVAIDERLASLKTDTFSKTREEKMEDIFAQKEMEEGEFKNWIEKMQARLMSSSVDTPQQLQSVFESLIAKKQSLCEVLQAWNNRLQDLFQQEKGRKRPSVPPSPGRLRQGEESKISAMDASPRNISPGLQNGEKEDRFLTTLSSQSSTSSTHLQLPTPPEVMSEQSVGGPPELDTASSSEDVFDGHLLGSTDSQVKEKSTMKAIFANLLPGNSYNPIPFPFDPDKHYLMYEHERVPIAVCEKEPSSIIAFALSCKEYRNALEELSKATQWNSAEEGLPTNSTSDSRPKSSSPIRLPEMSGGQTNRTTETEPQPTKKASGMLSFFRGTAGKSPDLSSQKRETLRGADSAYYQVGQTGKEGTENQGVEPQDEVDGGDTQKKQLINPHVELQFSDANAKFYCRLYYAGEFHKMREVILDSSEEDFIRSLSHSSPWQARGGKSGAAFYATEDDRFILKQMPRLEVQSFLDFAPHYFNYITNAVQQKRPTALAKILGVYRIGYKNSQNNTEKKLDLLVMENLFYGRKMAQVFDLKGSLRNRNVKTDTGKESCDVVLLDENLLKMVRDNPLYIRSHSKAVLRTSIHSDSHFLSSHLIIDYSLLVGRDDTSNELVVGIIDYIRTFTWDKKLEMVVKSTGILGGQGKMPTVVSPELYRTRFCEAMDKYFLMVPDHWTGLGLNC

Usually Kd stands for the constant that tells how readily two partners part at equilibrium. Read a high Kd as weaker binding. `COc1ccc(C(F)(F)F)cc1NC(=O)c1ccc(C)c(Nc2nc(-c3ccccc3)c3[nH]ccc3n2)c1` [V-c-51]: the Kd at PIKfyve protein is > 30 µM.

Turning to `Cc1ccc(NC(=O)c2cccc(C(F)(F)F)c2)cc1Nc1nc(-c2ccccc2)c2[nH]ccc2n1` [V-c-41], the Kd on PIKfyve protein is > 30 µM.

As a reminder, the IC50 is the concentration needed to halve the response being measured. A low value points to greater potency in that assay. What is called inhibition is the share of the control response that was lost under treatment. Consider `Cc1ccc(C(=O)Nc2cccc(C(F)(F)F)c2)cc1Nc1nc(-c2cccnc2)c2[nH]ccc2n1` [V-c-7], for which, in the experiment with MDA-MB-231 cells, the “degree of vacuolation, 1 μM, 24 h” value was “++”; the “degree of vacuolation, 1 μM, 48 h” value is “++”; the “degree of vacuolation, 10 μM, 24 h” value is recorded as “+”; the “degree of vacuolation, 10 μM, 48 h” value is “+”. This compound also gave an IC50 in the experiment on JeKo-1 cells of 3.28 µM. For the same compound, the inhibition at 3.3 µM with Toledo cells came to 95.8%. Further, in the experiment with ST486 cells, the inhibition at 3.3 µM came out at 91.3%.

With `Cc1ccc(C(=O)Nc2cccc(OC(F)(F)F)c2)cc1Nc1nc(-c2ccccc2)c2[nH]ccc2n1` [V-c-61], the Kd on PIKfyve protein is > 30 µM.

For the compound `Cc1ccc(C(=O)Nc2cccc(OC(F)(F)F)c2)cc1Nc1nc(-c2ccco2)c2[nH]ccc2n1` [V-c-62], the Kd at PIKfyve protein was > 30 µM.

For `CS(=O)(=O)Nc1cccc(Nc2nc(-c3cccnc3)c3[nH]ccc3n2)c1` [V-c-1], in the experiment on MDA-MB-231 cells, the “degree of vacuolation, 1 μM, 24 h” value is “−”; the “degree of vacuolation, 1 μM, 48 h” value is on record as “−”; the “degree of vacuolation, 10 μM, 24 h” value is “++”; the “degree of vacuolation, 10 μM, 48 h” value is reported as “++”. Besides, binding at PIKfyve protein was characterised by a dissociation constant (Kd) of 0.13 µM. Further, the inhibition at 3.3 µM in the experiment with Toledo cells came to 43.1%. Moreover, the inhibition at 3.3 µM in the experiment with ST486 cells was determined as 35.2%.

In the case of `COc1ccc(C(F)(F)F)cc1NC(=O)c1ccc(C)c(Nc2nc(-c3ccco3)c3[nH]ccc3n2)c1` [V-c-52], on PIKfyve protein, the Kd was > 30 µM.

Regarding `Cc1ccc(NC(=O)c2cccc(C(F)(F)F)c2)cc1Nc1nc(-c2cccs2)c2[nH]ccc2n1` [V-c-43], the Kd on PIKfyve protein is > 30 µM.

`Cc1ccc(NC(=O)c2cc(C(F)(F)F)cc(C(F)(F)F)c2)cc1Nc1nc(-c2cccnc2)c2[nH]ccc2n1` [V-c-21]: at PIKfyve protein, the Kd was found to be 0.91 µM. Moreover, the inhibition at 3.3 µM in the experiment with Toledo cells is 99.5%; with ST486 cells, 23.8%.

In the case of `Cc1ccc(NC(=O)c2cccc(C(F)(F)F)c2)cc1Nc1nc(-c2ccncc2)c2[nH]ccc2n1` [V-c-39], the Kd at PIKfyve protein is > 30 µM. The inhibition at 3.3 µM turned out to be 49.1% in the experiment on Toledo cells and 9.57% in the experiment on ST486 cells.

As to `Cc1ccc(NC(=O)c2cccc(C(F)(F)F)c2)cc1Nc1nc(-c2ccco2)c2[nH]ccc2n1` [V-c-42], on PIKfyve protein, the Kd is > 30 µM.

`COc1ccc(C(F)(F)F)cc1NC(=O)c1ccc(C)c(Nc2nc(-c3cccs3)c3[nH]ccc3n2)c1` [V-c-53]: the equilibrium dissociation constant (Kd) at PIKfyve protein was > 30 µM.

In the case of `Cc1ccc(C(=O)Nc2cccc(OC(F)(F)F)c2)cc1Nc1nc(-c2cccs2)c2[nH]ccc2n1` [V-c-63], the Kd at PIKfyve protein is > 30 µM.

Consider `Cc1cc(NC(=O)c2cccc(C(F)(F)F)c2)ccc1Nc1nc(-c2cccnc2)c2[nH]ccc2n1` [V-c-24], for which the Kd at PIKfyve protein was > 30 µM. For the same compound, the inhibition at 3.3 µM in the experiment with Toledo cells came to 97.3%; with ST486 cells, 55.8%.

Consider `Cc1ccc(NC(=O)c2cccc(C(F)(F)F)c2)cc1Nc1cc(-c2ccncc2)nc2sccc12` [VIII-a-4], for which, in the experiment with MDA-MB-231 cells, the “degree of vacuolation, 1 μM, 24 h” value was “+”; the “degree of vacuolation, 1 μM, 48 h” value is reported as “+”; the “degree of vacuolation, 10 μM, 24 h” value is on record as “+”; the “degree of vacuolation, 10 μM, 48 h” value is recorded as “+”. In addition, the inhibition at 10 µM in the experiment with JeKo-1 cells (10 μM, read-out: cell growth inhibition rate of compounds at 10 μM) is 17.3%.

For the compound `Cc1ccc(C(=O)Nc2cc(C(F)(F)F)cc(C(F)(F)F)c2)cc1Nc1nc(-c2cccnc2)c2[nH]ccc2n1` [V-c-9], at PIKfyve protein, the Kd amounted to 0.029 µM. For the same compound, the inhibition at 3.3 µM in the experiment with Toledo cells was 19.3%; with ST486 cells, 37.7%.

`Cc1ccc(C(=O)Nc2cccc(C(F)(F)F)c2)cc1Nc1nc(-c2ccncc2)c2[nH]ccc2n1` [V-c-38]: the Kd on PIKfyve protein is > 30 µM. Moreover, the figures for the inhibition at 3.3 µM in the experiment on Toledo cells and in the experiment with ST486 cells were 53.3% and 30%, respectively.
